Earlier results in patent US20020022649A1, “STABLE PHARMACEUTICAL FORMULATION” (priority 1998, published 2002).

Conditions: centchroman as a racemate

COc1ccc2c(c1)OC(C)(C)C(c1ccccc1)C2c1ccc(OCCN2CCCC2)cc1 (racemic) [centchroman, 3,4-trans-2,2-dimethyl-3-phenyl-4-[4-(2-pyrrolidin-1-yl)ethoxy)phenyl]-7-methoxychroman]
cholesterol lowering, serum concentrations: significant decrease of the serum concentrations
